According to US12252524B2, “GIP/GLP1 co-agonist compounds” (Eli Lilly and Company, priority 2018, dated 2025):
Numbered stars: 1 amine (or outer) side, 2 acyl side, 3 side chain; on linkers, the order of the positions; unused ones are H or OH. Square brackets hold non-standard residues; d marks the D form. Side chains are listed from the residue outwards. Peptide text beside a SMILES is read from it. * marks the point of attachment. C20 diacid = O=C(O)CCCCCCCCCCCCCCCCCCC(=O)*; γGlu = O=C(O)[C@H](CCC(=O)[*:2])N[*:1]; Desaminotyrosyl = O=C(CCc1ccc(O)cc1)*; AEEA = NCCOCCOCC(=O)O; Aib = CC(C)(N)C(=O)O

Columns and labels:
human Gcg receptor = target: T1, human Gcg receptor (Homo sapiens, UniProt P47871); experiment: [125I]-Glucagon binding (SPA), human Gcg receptor; settings: read-out: hGLcgR Ki, nM (SEM, n)
T1 construct: expressed in transfected cells; crude membranes
T1 sequence (P47871 26-477): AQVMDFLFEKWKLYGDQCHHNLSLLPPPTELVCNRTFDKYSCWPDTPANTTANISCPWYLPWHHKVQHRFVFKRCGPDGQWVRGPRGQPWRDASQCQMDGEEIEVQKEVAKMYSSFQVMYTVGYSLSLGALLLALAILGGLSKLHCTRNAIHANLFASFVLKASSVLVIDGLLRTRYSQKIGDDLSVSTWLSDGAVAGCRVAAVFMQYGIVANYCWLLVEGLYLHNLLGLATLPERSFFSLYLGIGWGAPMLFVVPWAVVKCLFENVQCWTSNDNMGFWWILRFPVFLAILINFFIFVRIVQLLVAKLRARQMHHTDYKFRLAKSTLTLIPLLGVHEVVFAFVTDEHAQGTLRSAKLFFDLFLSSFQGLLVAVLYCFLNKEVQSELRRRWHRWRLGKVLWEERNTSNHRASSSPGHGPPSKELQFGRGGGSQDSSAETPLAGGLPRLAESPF
Summary of the method: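 Cell pellets were lysed in hypotonic Tris buffer, pH 7.5, homogenized, and spun at low then high speed to give crude membranes. Ki was derived from the fitted IC50.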

human GIP receptor = target: T2, human GIP receptor (Homo sapiens, UniProt P48546); experiment: [125I]-GIP binding (SPA), human GIP receptor; settings: read-out: hGIPR Ki, nM (SEM, n)
T2 construct: expressed in transfected cells; crude membranes
T2 sequence (P48546 22-466): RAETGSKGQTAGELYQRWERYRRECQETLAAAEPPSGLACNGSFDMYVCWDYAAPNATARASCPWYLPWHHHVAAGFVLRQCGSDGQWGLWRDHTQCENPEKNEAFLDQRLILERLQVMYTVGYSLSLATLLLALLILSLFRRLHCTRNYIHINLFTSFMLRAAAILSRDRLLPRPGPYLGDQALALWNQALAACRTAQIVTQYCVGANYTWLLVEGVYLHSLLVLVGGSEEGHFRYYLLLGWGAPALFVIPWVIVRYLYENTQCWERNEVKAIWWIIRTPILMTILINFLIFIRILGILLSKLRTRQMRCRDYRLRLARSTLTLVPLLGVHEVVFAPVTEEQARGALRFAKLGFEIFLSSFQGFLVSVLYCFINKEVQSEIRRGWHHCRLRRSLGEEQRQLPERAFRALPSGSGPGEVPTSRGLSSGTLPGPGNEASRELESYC

[1] = target: human GLP-1 receptor (GLP-1R) (Homo sapiens, UniProt P43220); experiment: cAMP pharmacological functional assay in presence of casein, hGLP-1R; assay type: cell-based; settings: HEK293 cells expressing hGLP-1R, 0.1% Casein, geometric mean; read-out: hGLP1R cAMP Rel EC50 nM (SEM, n)
Sequence of human GLP-1 receptor (GLP-1R) (P43220 24-463): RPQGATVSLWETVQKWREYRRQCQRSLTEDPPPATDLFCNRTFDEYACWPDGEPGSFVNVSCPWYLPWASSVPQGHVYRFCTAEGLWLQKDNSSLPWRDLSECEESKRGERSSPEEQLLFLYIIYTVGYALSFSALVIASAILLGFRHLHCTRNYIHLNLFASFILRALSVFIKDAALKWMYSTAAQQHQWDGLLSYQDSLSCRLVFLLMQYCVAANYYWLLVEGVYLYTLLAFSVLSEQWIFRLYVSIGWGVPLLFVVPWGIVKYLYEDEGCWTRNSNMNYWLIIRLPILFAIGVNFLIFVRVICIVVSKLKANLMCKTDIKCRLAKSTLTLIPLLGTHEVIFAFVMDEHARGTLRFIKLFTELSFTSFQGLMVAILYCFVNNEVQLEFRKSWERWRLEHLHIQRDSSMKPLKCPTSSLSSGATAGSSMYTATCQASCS

[2] = target: T3, gastric inhibitory peptide receptor (GIPR) (Homo sapiens, UniProt P48546); experiment: cAMP pharmacological functional assay in presence of casein, hGIPR; assay type: cell-based; settings: HEK293 cells expressing hGIPR, 0.1% Casein, geometric mean; read-out: hGIPR cAMP Rel EC50 nM (SEM, n)
T3 sequence (P48546 22-466): T2 sequence (P48546 22-466)

human GLP-1R = human GLP-1R (Homo sapiens, UniProt P43220); experiment: [125I]-GLP-1 binding (SPA), human GLP-1 receptor; design: expressed in transfected cells; crude membranes; settings: read-out: hGLP1R Ki, (nM) (SEM, n)
Sequence of human GLP-1R (P43220 24-463): as above
Summary of the method: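 Frozen cell pellets are lysed on ice in hypotonic Tris buffer, pH 7.5, homogenized, and centrifuged to a membrane pellet resuspended at about 1 to 3 mg/mL. Binding is then measured in HEPES-based buffer at pH 7.4, and curves are fitted to give IC50 and Ki.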

## CC[C@H](C)[C@H](NC(=O)[C@H](CC(C)C)NC(=O)[C@H](Cc1ccc(O)cc1)NC(=O)[C@H](CCC(=O)O)NC(=O)[C@@H](NC(=O)[C@H](Cc1ccccc1)NC(=O)[C@H](C)NC(=O)C(C)(C)NC(=O)[C@H](CCC(N)=O)NC(=O)[C@H](C)NC(=O)[C@H](CCCCNC(=O)COCCOCCNC(=O)COCCOCCNC(=O)CC[C@H](NC(=O)CCCCCCCCCCCCCCCCCCC(=O)O)C(=O)O)NC(=O)[C@H](CCCCN)NC(=O)[C@H](CC(=O)O)NC(=O)[C@H](CC(C)C)NC(=O)[C@H](CC(C)C)NC(=O)[C@@H](NC(=O)[C@H](CO)NC(=O)[C@H](Cc1ccc(O)cc1)NC(=O)[C@H](CC(=O)O)NC(=O)[C@H](CO)NC(=O)[C@@H](NC(=O)[C@H](Cc1ccccc1)NC(=O)[C@@H](NC(=O)CNC(=O)[C@H](CCC(=O)O)NC(=O)C(C)(C)NC(=O)CCc1ccc(O)cc1)[C@@H](C)O)[C@@H](C)O)[C@@H](C)CC)[C@@H](C)CC)C(=O)N[C@@H](CCC(=O)O)C(=O)NCC(=O)NCC(=O)N1CCC[C@H]1C(=O)N[C@@H](CO)C(=O)N[C@@H](CO)C(=O)NCC(=O)N[C@@H](C)C(=O)N1CCC[C@H]1C(=O)N1CCC[C@H]1C(=O)N1CCC[C@H]1C(=O)N[C@@H](CO)C(N)=O [Example 107] (Desaminotyrosyl-[Aib]EGTFTSDYSILLDKK([AEEA-AEEA-γGlu-C20 diacid])AQ[Aib]AFIEYLIEGGPSSGAPPPS-NH2)
Human Gcg receptor
  Ki: 303 nM
Human GIP receptor
  Ki: 0.0425 nM
[1]
  EC50: 0.0539 nM
[2]
  EC50: 0.241 nM
Human GLP-1R
  Ki: 0.867 nM

## CC[C@H](C)[C@H](NC(=O)[C@H](CC(C)C)NC(=O)[C@H](Cc1ccc(O)cc1)NC(=O)[C@H](CCC(=O)O)NC(=O)[C@@H](NC(=O)[C@H](Cc1ccccc1)NC(=O)[C@H](C)NC(=O)C(C)(C)NC(=O)[C@H](CCC(N)=O)NC(=O)[C@H](C)NC(=O)[C@H](CCCCNC(=O)CCCCCCCNC(=O)COCCOCCNC(=O)CC[C@H](NC(=O)CCCCCCCCCCCCCCCCCCC(=O)O)C(=O)O)NC(=O)[C@H](CCCCN)NC(=O)[C@H](CC(=O)O)NC(=O)[C@H](CC(C)C)NC(=O)[C@H](CC(C)C)NC(=O)[C@@H](NC(=O)[C@H](CO)NC(=O)[C@H](Cc1ccc(O)cc1)NC(=O)[C@H](CC(=O)O)NC(=O)[C@H](CO)NC(=O)[C@@H](NC(=O)[C@H](Cc1ccccc1)NC(=O)[C@@H](NC(=O)CNC(=O)[C@H](CCC(=O)O)NC(=O)C(C)(C)NC(=O)[C@@H](N)Cc1ccc(O)cc1)[C@@H](C)O)[C@@H](C)O)[C@@H](C)CC)[C@@H](C)CC)C(=O)N[C@@H](CCC(=O)O)C(=O)NCC(=O)NCC(=O)N1CCC[C@H]1C(=O)N[C@@H](CO)C(=O)N[C@@H](CO)C(=O)NCC(=O)N[C@@H](C)C(=O)N1CCC[C@H]1C(=O)N1CCC[C@H]1C(=O)N1CCC[C@H]1C(=O)N[C@@H](CO)C(N)=O [Example 109]
Human Gcg receptor
  Ki: 43.1 nM
Human GIP receptor
  Ki: 0.0279 nM
[1]
  EC50: 0.35 nM
[2]
  EC50: 0.109 nM
Human GLP-1R
  Ki: 1.34 nM

## CC[C@H](C)[C@H](NC(=O)[C@H](CC(C)C)NC(=O)[C@H](Cc1ccc(O)cc1)NC(=O)[C@H](CCC(=O)O)NC(=O)[C@@H](NC(=O)[C@H](Cc1ccccc1)NC(=O)[C@H](C)NC(=O)C(C)(C)NC(=O)[C@H](CCC(N)=O)NC(=O)[C@H](C)NC(=O)[C@H](CCCCNC(=O)COCCOCCNC(=O)CC[C@H](NC(=O)[C@H]1CC[C@H](CNC(=O)CCCCCCCCCCCCCCCCCCC(=O)O)CC1)C(=O)O)NC(=O)[C@H](CCCCN)NC(=O)[C@H](CC(=O)O)NC(=O)[C@H](CC(C)C)NC(=O)[C@H](CC(C)C)NC(=O)[C@@H](NC(=O)[C@H](CO)NC(=O)[C@H](Cc1ccc(O)cc1)NC(=O)[C@H](CC(=O)O)NC(=O)[C@H](CO)NC(=O)[C@@H](NC(=O)[C@H](Cc1ccccc1)NC(=O)[C@@H](NC(=O)CNC(=O)[C@H](CCC(=O)O)NC(=O)C(C)(C)NC(=O)[C@@H](N)Cc1ccc(O)cc1)[C@@H](C)O)[C@@H](C)O)[C@@H](C)CC)[C@@H](C)CC)C(=O)N[C@@H](CCC(=O)O)C(=O)NCC(=O)NCC(=O)N1CCC[C@H]1C(=O)N[C@@H](CO)C(=O)N[C@@H](CO)C(=O)NCC(=O)N[C@@H](C)C(=O)N1CCC[C@H]1C(=O)N1CCC[C@H]1C(=O)N1CCC[C@H]1C(=O)N[C@@H](CO)C(N)=O [Example 110]
Human Gcg receptor
  Ki: 73.9 nM
Human GIP receptor
  Ki: 0.0395 nM
[1]
  EC50: 0.179 nM
[2]
  EC50: 0.218 nM
Human GLP-1R
  Ki: 4.38 nM
